What all share (type): cell-based
In test [1] the test system is Scopulariopsis brevicaulis. The experiment in a line: agar incorporation test, growth inhibition of dermatophytes. As for the experimental part: (§1) The activity of the compound according to the invention as agent for inhibiting the growth of various types of yeasts was studied in an agar incorporation test. The nutrient medium used was Sabouraud agar. Several samples of each of the yeast types below, which were isolated directly from diseased patients, were tested: • a) Candida tropicalis • b) Candida albicans • c) Candida glabrata • d) Candida parapsilosis.
(§2) The cultures were supplemented with bis(N-cyclohexyldiazeniumdioxy)copper in such an amount that an end concentration of 25 or 50 ppm was obtained. The cultures were subsequently incubated at 30° C., and the growth of the isolates was assessed after an incubation period of 2 to 5 days.
(§3) The activity of the compound according to the invention for inhibiting the growth of the dermatophyte cultures below was studied in an agar incorporation test as described in Example 1. The active ingredient concentration in the samples amounted to 2.5, 5, 10, 15, 20, 25, 30, 35, 40, 45 and 50 ppm. The isolates were studied after an incubation period of 7, 14 and 21 days, and their growth was determined.

Test [2] relates to Microsporum canis. Described as above. The procedure:
as §1, §2, §3

The test system of test [3] is Trichlorophyton rubrum. The test is described as above. The procedure: as §1, §2, §3
Test [4] relates to Epidermophyton floccosum. Described as above. As for the experimental part: as §1, §2, §3
Test [5] relates to Trichophyton mentagrophytes. Described as above. As for the experimental part: as §1, §2, §3
Test [6] has as its system Candida glabrata. The experiment in a line: agar incorporation test, growth inhibition of yeasts. The following applies: Sabouraud agar, 30° C., patient isolates. The procedure: as §1, §2
Test [7] has as its system Candida albicans. The description is as above. The following applies: Sabouraud agar, 30° C., patient isolates. As for the experimental part:
as §1, §2

For test [8], the system named is Candida tropicalis. The test is described as above. The following applies: Sabouraud agar, 30° C., patient isolates. The procedure: as §1, §2
Test [9] relates to Candida parapsilosis. The test is described as above. Particulars: Sabouraud agar, 30° C., patient isolates. As for the experimental part:
as §1, §2

Where [10] appears, read: active ingredient 25 ppm, incubation 2 and 5 days.
The mark [11] stands for this setting: active ingredient 50 ppm, incubation 2 to 5 days.

Molecules are shown by their SMILES.

One molecule from patent publication US20050070509A1, “Antimycotic agent” (priority 2001, published 2005) can be followed below.

With `O=NN([O-])C1CCCCC1.O=NN([O-])C1CCCCC1.[Cu+2]` [bis(N-cyclohexyldiazeniumdioxy)copper], the “Effective active ingredient concentration” value in [1] (incubation period 7 days) is listed as 25 ppm; in test [1] (incubation period 14 days) it was 35 ppm; in test [1] (incubation period 21 days) it was 40 ppm; in test [2] (incubation period 7 days), “≦10 ppm”; in test [2] (incubation period 14 days) it was 15 ppm; in test [2] (incubation period 21 days), 15 ppm. Besides, the “Effective active ingredient concentration” value turned out to be 15 ppm in test [3] (incubation period 7 days); 15 ppm in [3] (incubation period 14 days); 15 ppm in test [3] (incubation period 21 days); 15 ppm in test [4] (incubation period 7 days); 20 ppm in [4] (incubation period 14 days); 20 ppm in [4] (incubation period 21 days). Also, the “Effective active ingredient concentration” value in test [5] (incubation period 7 days), in [5] (incubation period 14 days) and in test [5] (incubation period 21 days) was 30 ppm in each case. The “growth of the isolates” value was “still growing” in test [6] (setting [10]); “no growth” in [6] (setting [11]); “still growing” in test [7] (setting [10]); “no growth” in test [7] (setting [11]); “still growing” in test [8] (setting [10]); “no growth” in test [8] (setting [11]). In addition, the “growth of the isolates” value is on record as “still growing” in test [9] (setting [10]) and “no growth” in test [9] (setting [11]).
